Experimental data reported in the NIST ThermoML archive (doi:10.1016/j.jct.2018.03.021).
± gives the expanded uncertainty stated by the source.

Tests used:
[1] = 100 kPa, Liquid, Vibrating tube method
[2] = molar heat capacity at constant pressure; details: 100 kPa, Liquid, Extra sensitive DSC
[3] = xn = mol fraction of the nth substance listed; details: 100 kPa, Liquid, Vibrating tube method, x2 = 0
[4] = molar heat capacity at constant pressure; xn = mol fraction of the nth substance listed; details: 100 kPa, Liquid, Extra sensitive DSC, x2 = 0

mass density ([1]; 298.15 K) [kg/m3]	mass density ([1]; 308.15 K) [kg/m3]	mass density ([1]; 318.15 K) [kg/m3]	mass density ([1]; 328.15 K) [kg/m3]	molar heat capacity at constant pressure ([2]; 298.8 K) [J/K/mol]	molar heat capacity at constant pressure ([2]; 308.7 K) [J/K/mol]	molar heat capacity at constant pressure ([2]; 318.6 K) [J/K/mol]	molar heat capacity at constant pressure ([2]; 328.5 K) [J/K/mol]	SMILES	mass density ([3]; 298.15 K) [kg/m3]	mass density ([3]; 308.15 K) [kg/m3]	mass density ([3]; 318.15 K) [kg/m3]	mass density ([3]; 328.15 K) [kg/m3]	molar heat capacity at constant pressure ([4]; 298.8 K) [J/K/mol]	molar heat capacity at constant pressure ([4]; 308.7 K) [J/K/mol]	molar heat capacity at constant pressure ([4]; 318.6 K) [J/K/mol]	molar heat capacity at constant pressure ([4]; 328.5 K) [J/K/mol]
852.99 ± 0.71	844.94 ± 0.71	836.86 ± 0.71	828.75 ± 0.71	240.9 ± 9.3	244.8 ± 9.5	249.4 ± 9.7	254.6 ± 9.9	Cc1ccc(C(C)C)cc1 [1-(1-methylethyl)-4-methylbenzene]								
799.46 ± 0.71	791.36 ± 0.71	783.1 ± 0.71	774.63 ± 0.71	144.5 ± 5.6	150.9 ± 5.8	157.4 ± 6.1	164.5 ± 6.4	CCCO [propan-1-ol]								
								CCCO [propan-1-ol] + Cc1ccc(C(C)C)cc1	799.46 ± 0.71	791.36 ± 0.71	783.1 ± 0.71	774.63 ± 0.71	144.5 ± 5.6	150.9 ± 5.8	157.4 ± 6.1	164.5 ± 6.4
